We go through 26 molecules from patent publication US8846704B2, “Thiopyrimidine-based compounds and uses thereof” (YM Biosciences Austraila Pty Ltd, priority 2007, dated 2014).

Each structure is given as a SMILES string.

The target of this experiment is T1, BaF3 TELJAK3 cells (Homo sapiens, UniProt P52333).
T1 construct: fused on or other part: TEL (ETV6) N-terminal part, coding nucleotides 1-487, serves as the oligomerising partner; It is fused through a Sal I site to the JAK3 kinase domain and expressed from pTRE2 in BaF3 cells bearing pTET-off; P41212 (Transcription factor ETV6)
T1 sequence (P52333 1-1124): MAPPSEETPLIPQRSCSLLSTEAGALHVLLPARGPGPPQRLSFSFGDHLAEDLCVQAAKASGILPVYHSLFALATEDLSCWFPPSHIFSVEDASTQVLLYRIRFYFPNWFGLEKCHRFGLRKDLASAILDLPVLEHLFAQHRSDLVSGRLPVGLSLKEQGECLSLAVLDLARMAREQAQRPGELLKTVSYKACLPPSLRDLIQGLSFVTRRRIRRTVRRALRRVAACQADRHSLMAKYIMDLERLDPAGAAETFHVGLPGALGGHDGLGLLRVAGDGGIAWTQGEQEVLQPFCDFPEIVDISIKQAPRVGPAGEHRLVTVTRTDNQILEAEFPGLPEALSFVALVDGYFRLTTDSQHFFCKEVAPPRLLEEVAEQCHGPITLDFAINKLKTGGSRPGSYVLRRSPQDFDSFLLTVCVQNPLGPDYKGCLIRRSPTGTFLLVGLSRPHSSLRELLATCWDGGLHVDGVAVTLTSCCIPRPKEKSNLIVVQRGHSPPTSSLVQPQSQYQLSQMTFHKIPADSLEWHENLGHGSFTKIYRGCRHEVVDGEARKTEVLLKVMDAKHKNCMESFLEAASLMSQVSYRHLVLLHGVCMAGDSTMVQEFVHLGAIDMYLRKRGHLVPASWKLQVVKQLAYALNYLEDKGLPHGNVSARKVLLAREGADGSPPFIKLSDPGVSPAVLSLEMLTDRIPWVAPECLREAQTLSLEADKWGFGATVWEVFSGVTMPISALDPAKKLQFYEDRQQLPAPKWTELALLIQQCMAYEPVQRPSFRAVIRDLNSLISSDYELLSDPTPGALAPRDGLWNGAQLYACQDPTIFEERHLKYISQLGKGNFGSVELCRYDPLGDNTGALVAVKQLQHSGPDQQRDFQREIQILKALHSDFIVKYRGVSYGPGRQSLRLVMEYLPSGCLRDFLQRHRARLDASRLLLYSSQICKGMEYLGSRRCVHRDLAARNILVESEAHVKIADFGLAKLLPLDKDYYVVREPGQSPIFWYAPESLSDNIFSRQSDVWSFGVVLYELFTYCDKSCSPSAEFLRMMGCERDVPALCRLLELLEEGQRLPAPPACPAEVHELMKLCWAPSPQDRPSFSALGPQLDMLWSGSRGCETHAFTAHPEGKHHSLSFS
The experiment is described as follows: Cellular screening, BaF3 TEL:JAK3 cells, Alamar Blue. The class given is cell-based. As to conditions: 40 hr, read-out: BafT_J3 IC50_nM. The method, then: For screening purposes, compounds were diluted in 96 well plates at a concentration of 20 μM. Plates were warmed at 37° C. for 30 minutes before the assay was performed.
The coding region encompassing nucleotides 1-487 of TEL was amplified by PCR using the oligonucleotides STEL (5′-GGAGGATCCTGATCTCTCTCGCTGTGAGAC-3′) [SEQ ID NO 14] and 3TEL (5′-AGGC GTCGACTTCTTCTTCATGGTTCTG-3′) [SEQ ID NO 15] and U937 mRNA as a template. A […] restriction site was incorporated into the STEL primer, and a Sal I restriction site was incorporated into the 3TEL primer. The regions encompassing the kinase domain of JAK2 (nucleotides 2994-3914; JAK2F 5′-ACGC GTCGACGGTGCCTTTGAAGACCGGGAT-3′ [SEQ ID NO 16]; JAK2R 5′-ATAGTTTAGCGGCCGCTCAGAATGAAGGTCATTT-3′) [SEQ ID NO 17] and JAK3 (nucleotides 2520-3469; JAK3F 5′-GAAGTCGACTATGCCTGCCAAGACCCCACGATCTT-3′) [SEQ ID NO 18] were generated by PCR using Taq DNA polymerase (Gibco/BRL) and […] as a template. A Sal I restriction site was incorporated into the forward primer of JAK2 and JAK3, a Not I site was incorporated into the JAK2 reverse primer and a Xba I site was added to the reverse primer of JAK3.
The TEL/Jak3 fusion was prepared by ligation of the JAK3 Sal I/Not I cleaved kinase domain PCR product with the BamH I/Sal I restriction digested TEL product, followed by ligation of the ligation product into the BamH I/Not I digested pTRE2, to give the TEL/Jak3 fusion plasmid pTELJAK3.
The growth factor dependant myelomonocytic cell line BaF3 bearing the pTET-off plasmid (Clontech) was transfected with either pTELJAK2 or pTELJAK3, and the transfected cells were selected for growth-factor independent cell growth. The BaF3 wild-type cells were cultured in DMEM containing 10% FCS, 10% WEHI 3B conditioned medium. The BaF3 TELJAK cells ([…]) were cultured in DMEM 10% Tet-System Approved FBS (without WEHI 3B conditioned medium).
Cell suspensions were prepared by harvesting cells from culture (the cells used in this test were in late log phase growth with high viability.) Cells were diluted in the appropriate growth medium, as described above, to 1.1× final concentration (from 50,000 cell/mL to 200,000 cell/mL, depending on cell line).
Compounds to be tested were added (10 μL, 10× final concentration) to a flat bottomed 96-well plate. The cellular suspension (90 μL per well) was then added, and the plate incubated for 40 hr at 37° C., 5% CO2. Alamar Blue 10 μL per well was added and the plates returned to the incubator for a further 4-6 hours. The plates were then read at 544 nm.
A general note: Alamar Blue is a resazurin reagent that responds to reducing activity.
For `C=CC(=O)Nc1cccc(Nc2nccc(Sc3ccccn3)n2)c1` [Compound 2, N-(3-(4-(pyridin-2-ylthio)pyrimidin-2-ylamino)phenyl)acrylamide], the GI50 is < 1 µM. On to `CC#CC(=O)Nc1cccc(Nc2nccc(SC)n2)c1` [Compound 8, N-(3-(4-(methylthio)pyrimidin-2-ylao)phenyl)but-2-ynamide], for which the GI50 is < 5 µM.

As to `C=CC(=O)Nc1ccc(Nc2nccc(SC)n2)cc1` [Compound 13, N-(4-(4-(methylthio)pyrimidin-2-ylao)phenyl)acrylamide], the GI50 was > 20 µM.

As for `C=CC(=O)Nc1cccc(Nc2nccc(Sc3ccccc3)n2)c1` [Compound 16, N-(3-(4-(phenylthio)pyrimidin-2-ylamino)phenyl)acrylamide], the GI50 is < 1 µM. Take `C=CC(=O)Nc1cccc(Sc2ccnc(Nc3ccc(N4CCOCC4)cc3)n2)c1` [Compound 23, N-(3-(2-(4-morpholinophenylamino)pyrimidin-4-ylthio)phenyl)acrylamide]: the GI50 was < 1 µM. In the case of `N#CCC(=O)Nc1cccc(Sc2ccnc(Nc3ccc(N4CCOCC4)cc3)n2)c1` [Compound 24, N-(3-(2-(4-morpholinophenylamino)pyrimidin-4-ylthio)phenyl)-2-cyanoacetamide], the GI50 was < 20 µM. For the molecule `C=CC(=O)Nc1ccc(Sc2ccnc(Nc3ccc(N4CCOCC4)cc3)n2)cc1` [Compound 25, N-(4-(2-(4-morpholinophenylamino)pyrimidin-4-ylthio)phenyl)acrylamide], the GI50 is < 1 µM. The figure for `Nc1ccc(Sc2ccnc(Nc3ccc(N4CCOCC4)cc3)n2)cc1` [Compound 27, 4-(4-aophenylthio)-N-(4-morpholinophenyl)pyrimidin-2-ae] is < 20 µM; for `C=CC(=O)Nc1cccc(Nc2nccc(Sc3ccc(OC)cc3)n2)c1` [Compound 42, N-(3-(4-(4-methoxyphenylthio)pyrimidin-2-ylao)phenyl)acrylamide] it is < 5 µM; for `OCc1cccc(Sc2ccnc(Nc3ccc(N4CCOCC4)cc3)n2)c1` [Compound 62, (3-(2-(4-Morpholinophenylamino)pyrimidin-4-ylthio)phenyl)methanol] it is < 20 µM.

In the case of `OCc1ccc(Sc2ccnc(Nc3ccc(N4CCOCC4)cc3)n2)cc1` [Compound 67, (4-(2-(4-morpholinophenylao)pyrimidin-4-ylthio)phenyl)methanol], the GI50 is < 20 µM. With `N#CCNCc1cccc(Sc2ccnc(Nc3ccc(N4CCOCC4)cc3)n2)c1` [Compound 68, 2-(3-(2-(4-morpholinophenylao)pyrimidin-4-ylthio)benzylao)acetonitrile], the GI50 was < 20 µM. For `NCc1cccc(Sc2ccnc(Nc3ccc(N4CCOCC4)cc3)n2)c1` [Compound 75, 4-(3-(aomethyl)phenylthio)-N-(4-morpholinophenyl)pyrimidin-2-ae], the GI50 was < 20 µM.

Take `C=CC(=O)Nc1ccc(Sc2ccnc(Nc3cccc(N4CCOCC4)c3)n2)cc1` [Compound 77, N-(4-(2-(3-morpholinophenylao)pyrimidin-4-ylthio)phenyl)acrylamide]: the GI50 was < 1 µM.

Take `C=CC(=O)Nc1ccc(Sc2ccnc(Nc3cc(C)cc(C)c3)n2)cc1` [Compound 82, N-(4-(2-(3,5-dimethylphenylao)pyrimidin-4-ylthio)phenyl)acrylamide]: the GI50 was < 5 µM. As for `c1cc(Sc2ccc(Cn3cnnn3)cc2)nc(Nc2ccc(N3CCOCC3)cc2)n1` [Compound 109, 4-(4-((1H-tetrazol-1-yl)methyl)phenylthio)-N-(4-morpholinophenyl)pyrimidin-2-ae], the GI50 is < 20 µM. The figure for `C=CC(=O)Nc1cccc(Sc2ccnc(Nc3cccc(N4CCOCC4)c3)n2)c1` [Compound 110, N-(3-(2-(3-morpholinophenylao)pyrimidin-4-ylthio)phenyl)acrylamide] is < 1 µM; for `C=CC(=O)NCc1ccc(Sc2ccnc(Nc3ccc(N4CCOCC4)cc3)n2)cc1` [Compound 111, N-(4-(2-(4-morpholinophenylamino)pyrimidin-4-ylthio)benzyl)acrylamide] it is < 1 µM; for `C=CC(=O)NCc1cccc(Sc2ccnc(Nc3ccc(N4CCOCC4)cc3)n2)c1` [Compound 112, N-(3-(2-(4-morpholinophenylamino)pyrimidin-4-ylthio)benzyl)acrylamide] it is < 20 µM. The figure for `C=CC(=O)Nc1ccc(Sc2ccnc(Nc3ccc(N4CCOCC4)cc3)n2)cc1OC` [Compound 123, N-(2-methoxy-4-(2-(4-morpholinophenylao)pyrimidin-4-ylthio)phenyl)acrylamide] is < 5 µM. On to `N#Cc1nnnn1Cc1ccc(Sc2ccnc(Nc3ccc(N4CCOCC4)cc3)n2)cc1` [Compound 155, 1-(4-(2-(4-morpholinophenylao)pyrimidin-4-ylthio)benzyl)-1H-tetrazole-5-carbonitrile], for which the GI50 was < 20 µM. `N#Cc1nnn(Cc2ccc(Sc3ccnc(Nc4ccc(N5CCOCC5)cc4)n3)cc2)n1` [Compound 156, 2-(4-(2-(4-morpholinophenylao)pyrimidin-4-ylthio)benzyl)-2H-tetrazole-5-carbonitrile]: the GI50 was < 5 µM. The figure for `Cc1cc(N)ccc1Sc1nc(Nc2ccc(N3CCOCC3)cc2)ncc1C` [Compound 162, 4-(4-ao-2-methylphenylthio)-5-methyl-N-(4-morpholinophenyl)pyrimidin-2-ae] is < 5 µM.

As to `C=CC(=O)Nc1ccc(Sc2nc(Nc3ccc(N4CCOCC4)cc3)ncc2C)c(C)c1` [Compound 163, N-(3-methyl-4-(5-methyl-2-(4-morpholinophenylao)pyrimidin-4-ylthio)phenyl)acrylamide], the GI50 was < 1 µM. In the case of `Cc1cnc(Nc2ccc(N3CCOCC3)cc2)nc1Sc1c(C)cc(N)cc1C` [Compound 165, 4-(4-ao-2,6-dimethylphenylthio)-5-methyl-N-(4-morpholinophenyl)pyrimidin-2-ae], the GI50 was > 20 µM.

On to `C=CC(=O)N(C)c1ccc(Sc2nc(Nc3ccc(N4CCOCC4)cc3)ncc2C)cc1` [Compound 173, N-methyl-N-(4-(5-methyl-2-(4-morpholinophenylao)pyrimidin-4-ylthio)phenyl)acrylamide], for which the GI50 was < 1 µM.
